# Laboratory results from US10538555B2, “Macrocyclic inhibitors of the PD-1/PD-L1 and CD80(B7-1)/PD-L1 protein/protein interactions” (BRISTOL-MYERS SQUIBB COMPANY, priority 2014, dated 2020).
# *1 amine or outer side, *2 acyl side, *3 side chain or, on linkers, in order; H or OH if unused. Where a SMILES comes first, the peptide text is derived from it. Bridges are numbered along the chain shown (N, C = ends). [ ]: non-standard residue; d: D form. ξ: configuration not given here. X11 = CCCC[C@@H](C(=O)C1C[C@H](O)C[C@@H]1C(=O)[*:2])N(C)[*:1]; Trp(1-CH2COOH) = N[C@@H](Cc1cn(CC(=O)O)c2ccccc12)C(=O)O; Phe(3,4,5-F3) = N[C@@H](Cc1cc(F)c(F)c(F)c1)C(=O)O; Phe(3,4-F2) = N[C@@H](Cc1ccc(F)c(F)c1)C(=O)O; NMePhe(4-F) = CN[C@@H](Cc1ccc(F)cc1)C(=O)O; Phe(4-F) = N[C@@H](Cc1ccc(F)cc1)C(=O)O; d(cisHyp) = O=C(O)[C@H]1C[C@@H](O)CN1; NMeY = CN[C@@H](Cc1ccc(O)cc1)C(=O)O; Hyp = O=C(O)[C@@H]1C[C@@H](O)CN1; NMeF = CN[C@@H](Cc1ccccc1)C(=O)O; X1 = O=C([C@H]1COCCN1[*:1])[*:2]; dNMeF = CN[C@H](Cc1ccccc1)C(=O)O; dHyp = O=C(O)[C@H]1C[C@H](O)CN1; NMehSer = CN[C@@H](CCO)C(=O)O; NMeNle = CCCC[C@H](NC)C(=O)O; dPip = O=C(O)[C@H]1CCCCN1; hSer = N[C@@H](CCO)C(=O)O; NMeA = CN[C@@H](C)C(=O)O; Orn = NCCC[C@H](N)C(=O)O; dNMeA = CN[C@H](C)C(=O)O; Dab = NCC[C@H](N)C(=O)O; Dap = NC[C@H](N)C(=O)O; ξC = NC(CS)C(=O)O
# Target: T1, Human PD-L1/PD-1 (Homo sapiens, UniProt Q9NZQ7)
# T1 construct: TVMV protease cleavage site (C); made in house; host or cells: HEK293T cells
# Test: HTRF Human PD-L1/PD-1 binding assay (PD-1-Ig/PD-L1-His)
# Settings: PD-L1-His 10 nM, PD-1-Ig 20 nM; class symbol; read-out: HTRF Human PD-L1/PD-1 Binding Assay IC50 Range
# Summary of the method: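 Soluble HEK293T-expressed proteins: hPD-L1-His 10 nM, hPD-1-Ig 20 nM final. Cpd + PD-L1 15 min, + PD-1 15 min, + Eu anti-Ig 1 nM/APC anti-His 20 nM 30 min. Buffer dPBS, 0.1% BSA, 0.05% Tween-20. TR-FRET 665/620.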
# T1 sequence (Q9NZQ7 with tags, fused parts or gaps): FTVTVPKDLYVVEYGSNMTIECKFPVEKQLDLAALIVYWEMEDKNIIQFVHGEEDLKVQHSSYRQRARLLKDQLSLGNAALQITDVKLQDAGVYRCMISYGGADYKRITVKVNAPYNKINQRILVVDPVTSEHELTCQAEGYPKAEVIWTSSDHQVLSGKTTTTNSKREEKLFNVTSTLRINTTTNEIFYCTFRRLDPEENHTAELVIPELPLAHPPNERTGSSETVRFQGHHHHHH
row,IC50 [nM],SMILES
1,1 to 9.9,CCCC[C@H]1C(=O)N(C)[C@@H](CCCC)C(=O)N[C@@H](CCC(=O)O)C(=O)N[C@H](C(=O)NCC(N)=O)CSCC(=O)N[C@@H](Cc2ccc(O)cc2)C(=O)N(C)[C@@H](C)C(=O)N[C@@H](CC(N)=O)C(=O)N2CCC[C@H]2C(=O)N[C@@H](Cc2cnc[nH]2)C(=O)N[C@@H](CCCN)C(=O)N2C[C@H](O)C[C@H]2C(=O)N[C@@H](Cc2c[nH]c3ccccc23)C(=O)N[C@@H](CCCCN)C(=O)N[C@@H](Cc2cn(CC(=O)O)c3ccccc23)C(=O)N1C [Example 6267] ({CH2CO}-Y[NMeA]NPH[Orn][Hyp]WK[Trp(1-CH2COOH)][NMeNle][NMeNle]ECG-NH2; thioether N-14)
2,1 to 9.9,CCCC[C@H]1C(=O)N(C)[C@@H](CCCC)C(=O)N[C@@H](CCC(=O)O)C(=O)N[C@H](C(=O)NCC(N)=O)CSCC(=O)N[C@@H](Cc2ccc(O)cc2)C(=O)N(C)[C@@H](C)C(=O)N[C@@H](CC(=O)O)C(=O)N2CCC[C@H]2C(=O)N[C@@H](CN)C(=O)N[C@@H](CCC(N)=O)C(=O)N2C[C@H](O)C[C@H]2C(=O)N[C@@H](Cc2c[nH]c3ccccc23)C(=O)N[C@@H](CO)C(=O)N[C@@H](Cc2cn(CC(=O)O)c3ccccc23)C(=O)N1C [Example 6289] ({CH2CO}-Y[NMeA]DP[Dap]Q[Hyp]WS[Trp(1-CH2COOH)][NMeNle][NMeNle]ECG-NH2; thioether N-14)
3,1 to 9.9,"CCCC[C@H]1C(=O)N2C[C@H](O)C[C@@H]2C(=O)N[C@@H](CC(=O)O)C(=O)N[C@@H](C(C)C)C(=O)N(C)[C@H](Cc2ccccc2)C(=O)N[C@@H](CCCN)C(=O)N2C[C@H](O)C[C@@H]2C(=O)N[C@@H](Cc2c[nH]c3ccccc23)C(=O)N[C@@H](Cc2ccc(O)cc2)C(=O)N[C@@H](CCCN)C(=O)N[C@H](C(=O)NCC(N)=O)CSCC(=O)N[C@@H](Cc2ccc(F)c(F)c2)C(=O)N(C)[C@@H](Cc2ccccc2)C(=O)N1C [Example 9309] ({CH2CO}-[Phe(3,4-F2)][NMeF][NMeNle][d(cisHyp)]DV[dNMeF][Orn][d(cisHyp)]WY[Orn]CG-NH2; thioether N-13)"
4,10 to 99.9,CCCC[C@H]1C(=O)N(C)[C@@H](CCCC)C(=O)N[C@@H](CCC(=O)O)C(=O)N[C@H](C(=O)NCC(N)=O)CSCC(=O)N[C@@H](Cc2ccc(OC)cc2)C(=O)N(C)[C@@H](C)C(=O)N[C@@H](CC(N)=O)C(=O)N2CCC[C@H]2C(=O)N[C@@H](CN)C(=O)N[C@@H](CCC(=O)O)C(=O)N2C[C@H](O)C[C@H]2C(=O)N[C@@H](Cc2c[nH]c3ccccc23)C(=O)N[C@@H](CC(=O)O)C(=O)N[C@@H](Cc2c[nH]c3ccccc23)C(=O)N1C [Example 7117] ({CH2CO}-Y(Me)[NMeA]NP[Dap]E[Hyp]WDW[NMeNle][NMeNle]ECG-NH2; thioether N-14)
5,10 to 99.9,"CCCC[C@H]1C(=O)C2C[C@H](O)C[C@@H]2C(=O)N[C@@H](CC(=O)O)C(=O)N[C@@H](C(C)C)C(=O)N(C)[C@@H](Cc2ccccc2)C(=O)N[C@@H](CCC(=O)O)C(=O)N2CCCC[C@@H]2C(=O)N[C@@H](Cc2c[nH]c3ccccc23)C(=O)N[C@@H](Cc2ccc(O)cc2)C(=O)N[C@@H](CCCN)C(=O)N[C@H](C(=O)NCC(N)=O)CSCC(=O)N[C@@H](Cc2cc(F)c(F)c(F)c2)C(=O)N(C)[C@@H](Cc2ccccc2)C(=O)N1C (stereo partly drawn) [Example 3642] ({CH2CO}-[Phe(3,4,5-F3)][NMeF][X11]DV[NMeF]E[dPip]WY[Orn]CG-NH2; thioether N-12)"
6,1 to 9.9,"COCC[C@H]1C(=O)N2C[C@@H](O)C[C@@H]2C(=O)N[C@@H](CC(=O)O)C(=O)N[C@@H](C(C)C)C(=O)N(C)[C@H](Cc2ccccc2)C(=O)N[C@@H](Cc2ccc(OC)cc2)C(=O)N2C[C@@H](O)C[C@@H]2C(=O)N[C@@H](Cc2c[nH]c3ccccc23)C(=O)N[C@@H](Cc2ccc(O)cc2)C(=O)N[C@@H](CC(C)C)C(=O)N[C@H](C(=O)NCC(N)=O)CSCC(=O)N[C@@H](Cc2ccc(F)c(F)c2)C(=O)N(C)[C@@H](Cc2ccccc2)C(=O)N1C [Example 9236] ({CH2CO}-[Phe(3,4-F2)][NMeF][NMehSer](Me)[dHyp]DV[dNMeF]Y(Me)[dHyp]WYLCG-NH2; thioether N-13)"
7,1 to 9.9,"CCCC[C@H]1C(=O)N2C[C@H](O)C[C@@H]2C(=O)N[C@@H](CC(=O)O)C(=O)N[C@@H](C(C)C)C(=O)N(C)[C@H](Cc2ccccc2)C(=O)N[C@@H](CCCCN)C(=O)N2C[C@H](O)C[C@@H]2C(=O)N[C@@H](Cc2c[nH]c3ccccc23)C(=O)N[C@@H](Cc2ccc(O)cc2)C(=O)N[C@@H](CCCN)C(=O)N[C@H](C(=O)NCC(N)=O)CSCC(=O)N[C@@H](Cc2ccc(F)c(F)c2)C(=O)N(C)[C@@H](Cc2ccccc2)C(=O)N1C [Example 9307] ({CH2CO}-[Phe(3,4-F2)][NMeF][NMeNle][d(cisHyp)]DV[dNMeF]K[d(cisHyp)]WY[Orn]CG-NH2; thioether N-13)"
8,1 to 9.9,"CCCC[C@H]1C(=O)N2C[C@@H](O)C[C@@H]2C(=O)N[C@@H](CC(=O)O)C(=O)N[C@@H](C(C)C)C(=O)N(C)[C@@H](Cc2ccccc2)C(=O)N[C@@H](CCC(=O)O)C(=O)N2CCCC[C@@H]2C(=O)N[C@@H](Cc2c[nH]c3ccccc23)C(=O)N[C@@H](Cc2ccc(O)cc2)C(=O)N[C@@H](CCCCN)C(=O)N[C@H](C(=O)NCC(N)=O)CSCC(=O)N[C@@H](Cc2cc(F)c(F)c(F)c2)C(=O)N(C)[C@@H](Cc2ccc(F)cc2)C(=O)N1C [Example 10560] ({CH2CO}-[Phe(3,4,5-F3)][NMePhe(4-F)][NMeNle][dHyp]DV[NMeF]E[dPip]WYKCG-NH2; thioether N-13)"
9,10 to 99.9,CCCC[C@H]1C(=O)N(C)[C@@H](CCCC)C(=O)N[C@@H](CCCNC(=N)N)C(=O)NC(C(=O)NCC(N)=O)CSCC(=O)N[C@@H](Cc2ccc(O)cc2)C(=O)N(C)[C@@H](C)C(=O)N[C@@H](CC(N)=O)C(=O)N2CCC[C@H]2C(=O)N[C@@H](CCO)C(=O)N[C@@H](CO)C(=O)N2CCC[C@H]2C(=O)N[C@@H](Cc2c[nH]c3ccccc23)C(=O)N[C@@H](CO)C(=O)N[C@@H](Cc2c[nH]c3ccccc23)C(=O)N1C (stereo partly drawn) [Example 10024] ({CH2CO}-Y[NMeA]NP[hSer]SPWSW[NMeNle][NMeNle]R[ξC]G-NH2; thioether N-14)
10,1 to 9.9,"CCCC[C@H]1C(=O)N2C[C@@H](O)C[C@@H]2C(=O)N[C@@H](CC(=O)O)C(=O)N[C@@H](C(C)C)C(=O)N(C)[C@@H](Cc2ccccc2)C(=O)N[C@@H](Cc2ccc(O)cc2)C(=O)N2C[C@@H](O)C[C@@H]2C(=O)N[C@@H](Cc2c[nH]c3ccccc23)C(=O)N[C@@H](Cc2ccc(O)cc2)C(=O)N[C@@H](CC(C)C)C(=O)N[C@H](C(=O)NCC(N)=O)CSCC(=O)N[C@@H](Cc2ccc(F)c(F)c2)C(=O)N(C)[C@@H](Cc2ccccc2)C(=O)N1C [Example 9227] ({CH2CO}-[Phe(3,4-F2)][NMeF][NMeNle][dHyp]DV[NMeF]Y[dHyp]WYLCG-NH2; thioether N-13)"
11,100 to 990,CCCC[C@H]1C(=O)N2CCC[C@@H]2C(=O)N[C@@H](CC(=O)O)C(=O)N[C@@H](C(C)C)C(=O)N(C)[C@@H](CCOC)C(=O)N[C@@H](Cc2ccc(O)cc2)C(=O)N2CCC[C@@H]2C(=O)N[C@@H](Cc2c[nH]c3ccccc23)C(=O)N[C@@H](Cc2ccc(O)cc2)C(=O)N[C@@H](CCCN)C(=O)N[C@H](C(=O)NCC(N)=O)CSCC(=O)N[C@@H](Cc2ccc(F)cc2)C(=O)N(C)[C@@H](Cc2ccccc2)C(=O)N1C [Example 9221] ({CH2CO}-[Phe(4-F)][NMeF][NMeNle][dP]DV[NMehSer](Me)Y[dP]WY[Orn]CG-NH2; thioether N-13)
12,1 to 9.9,"CCCC[C@H]1C(=O)N2CCC[C@@H]2C(=O)N[C@@H](CC(=O)O)C(=O)N[C@@H](C(C)C)C(=O)N(C)[C@@H](Cc2ccccc2)C(=O)N[C@@H](CC(=O)O)C(=O)N2CCCC[C@@H]2C(=O)N[C@@H](Cc2c[nH]c3ccccc23)C(=O)N[C@@H](Cc2ccc(O)cc2)C(=O)N[C@@H](CO)C(=O)N[C@H](C(=O)NCC(N)=O)CSCC(=O)N[C@@H](Cc2cc(F)c(F)c(F)c2)C(=O)N(C)[C@@H](Cc2ccc(F)cc2)C(=O)N1C [Example 10573] ({CH2CO}-[Phe(3,4,5-F3)][NMePhe(4-F)][NMeNle][dP]DV[NMeF]D[dPip]WYSCG-NH2; thioether N-13)"
13,10 to 99.9,"CCCC[C@H]1C(=O)N2CCC[C@@H]2C(=O)N[C@@H](CC(=O)O)C(=O)N[C@@H](C(C)C)C(=O)N(C)[C@@H](Cc2ccccc2)C(=O)N[C@@H](CCC(=O)O)C(=O)N2CCOC[C@@H]2C(=O)N[C@@H](Cc2c[nH]c3ccccc23)C(=O)N[C@@H](Cc2ccc(O)cc2)C(=O)N[C@@H](CC(C)C)C(=O)N[C@H](C(=O)NCC(N)=O)CSCC(=O)N[C@@H](Cc2cc(F)c(F)c(F)c2)C(=O)N(C)[C@@H](Cc2ccc(O)cc2)C(=O)N1C [Example 10615] ({CH2CO}-[Phe(3,4,5-F3)][NMeY][NMeNle][dP]DV[NMeF]E[X1]WYLCG-NH2; thioether N-13)"
14,10 to 99.9,"CCCC[C@H]1C(=O)N2C[C@H](O)C[C@@H]2C(=O)N[C@@H](CC(=O)O)C(=O)N[C@@H](C(C)C)C(=O)N(C)[C@@H](Cc2ccccc2)C(=O)N[C@@H](CC(N)=O)C(=O)N2C[C@H](O)C[C@@H]2C(=O)N[C@@H](Cc2c[nH]c3ccccc23)C(=O)N[C@@H](Cc2ccc(O)cc2)C(=O)N[C@@H](CCN)C(=O)N[C@H](C(=O)NCC(N)=O)CSCC(=O)N[C@@H](Cc2cc(F)c(F)c(F)c2)C(=O)N(C)[C@@H](Cc2ccccc2)C(=O)N1C [Example 9364] ({CH2CO}-[Phe(3,4,5-F3)][NMeF][NMeNle][d(cisHyp)]DV[NMeF]N[d(cisHyp)]WY[Dab]CG-NH2; thioether N-13)"

# Same assay, conditions: PD-L1-His 10 nM, PD-1-Ig 20 nM; read-out: HTRF Human PD-L1/PD-1 Binding Assay IC50
row,IC50 [nM],SMILES
1,14,"CC(C)C[C@@H]1NC(=O)[C@H](Cc2ccc(O)cc2)NC(=O)[C@H](Cc2c[nH]c3ccccc23)NC(=O)[C@@H](C)N(C)C(=O)[C@H](Cc2ccc(O)cc2)NC(=O)[C@H](Cc2ccccc2)N(C)C(=O)[C@H](C(C)C)NC(=O)[C@H](CCO)NC(=O)[C@@H](C)N(C)C(=O)[C@H](C)N(C)C(=O)[C@H](Cc2ccccc2)N(C)C(=O)[C@H](Cc2cc(F)c(F)c(F)c2)NC(=O)CSC[C@@H](C(=O)NCC(N)=O)NC1=O [Example 9192] ({CH2CO}-[Phe(3,4,5-F3)][NMeF][NMeA][dNMeA][hSer]V[NMeF]Y[dNMeA]WYLCG-NH2; thioether N-13)"
